# Source: US20240325336A1, “COMBINATION THERAPIES COMPRISING OXYGEN-CONTAINING STRUCTURALLY ENHANCED FATTY ACIDS FOR TREATMENT OF NON-ALCOHOLIC STEATOHEPATITIS” (NORTHSEA THERAPEUTICS B.V., priority 2020, published 2024)
# “Also recorded” adds a separate entry of the source.
# Tests used:
# [1] = CDAA/high-fat diet NASH mouse model: relative body weight and liver weight; assay type: in vivo; details: CDAA-HFD mice, 8 weeks QD; for liver weight: compared to untreated vehicle group (FIG. 1B)
# Description: (§1) Although the widely used methionine-choline deficient (MCD) diet consistently reproduces severe NASH-like hepatic inflammation and fibrosis in mice, it is also associated with severe weight-loss (loss of both skeletal muscle and fat mass). This is associated with an increased risk of death which presents major problems for long-term fibrogenesis experiments. […] In the current study, male mice (strain C57BI/6JRj) were fed choline deficient high-fat diets (45% of total calories from fat; “CDAA/high-fat” or “CDAA-HFD”). The NASH inducing diet was instigated 6 weeks prior to the commencement of administration of active agents in order to evaluate treatment and reversal of NASH parameters. The NASH inducing CDAA-HFD was continued for the 8 weeks of administration of the indicated active agents and combinations thereof.
# (§2) The aim of this study was to evaluate the effects of 8 weeks of administration of Compound A, OCA, semaglutide, and firsocostat alone and in combination on metabolic parameters, hepatic pathology, and on NAFLD Activity Score including Fibrosis Stage in male CDAA-HFD mice.
# (§3) Prior to administration of the activate agents, animals were randomized into treatment groups based on body weight. A baseline group (n=12) was terminated at study start after 6 weeks on the CDAA-HFD diet. CDAA-HFD fed mice (n=10-12 per group) received daily per oral (PO) treatment with vehicle, Compound A (112 mg/kg), OCA (30 mg/kg), semaglutide (30 nmol/kg SC), firsocostat (5 mg/kg), Compound A+Semaglutide (112 mg/kg+30 nmol/kg), Compound A+OCA (112 mg/kg+30 mg/kg), and Compound A+firsocostat (112 mg/kg+5 mg/kg) for 8 weeks. Terminal liver biopsy were analyzed for histopathological scores. Terminal quantitative endpoints included plasma/liver biochemistry and liver histomorphometry.
# [2] = test system: male CDAA-HFD mice; experiment: CDAA/high-fat diet NASH mouse model: plasma triglycerides and total cholesterol; assay type: in vivo; details: 8 weeks QD, compared to untreated vehicle group (FIG. 3A)
# Description: as §1, §2
# Prior to administration of the activate agents, animals were randomized into treatment groups based on body weight. […] Terminal liver biopsy were analyzed for histopathological scores. Terminal quantitative endpoints included plasma/liver biochemistry and liver histomorphometry.
# [3] = test system: male CDAA-HFD mice; experiment: CDAA/high-fat diet NASH mouse model: hepatic steatosis (H&E image analysis, steatosis score); assay type: in vivo; details: 8 weeks QD; for percentage of hepatocytes with lipid droplets: compared to untreated vehicle group (FIG. 5B); for steatosis scores: compared to untreated vehicle group (FIG. 6); for hepatic steatosis area (relative liver lipids): compared to untreated vehicle group (FIG. 5A)
# Description: as §1, §3
# (§4) Liver samples stained with Hematoxylin and Eosin (H&E) or Picro Sirius Red (PSR) were scored for NAS components (steatosis, lobular inflammation, and ballooning degeneration) and fibrosis stage respectively using the clinical criteria outlined by Kleiner et al., Hepatology, 2005; 41. Total NAS represents the sum of scores for steatosis, inflammation, and ballooning, and ranges from 0-8.
# (§5) NAS and fibrosis stage was determined by deep learning applications developed by Gubra (Denmark) using the VIS software (Visiopharm®, Denmark) for a more accurate and objective method for staging disease in DIO-NASH mouse models.
# (§6) Scanned H&E stained slides were analyzed in several steps: • 1. Tissue detection at low magnification, followed by deep learning-based detection of portal triads and central veins at 10× magnification. • 2. Another deep learning application detected nuclei of hepatocytes with lipid droplets, hepatocytes without lipids, ballooned hepatocytes, and inflammatory cells at 20× magnification. Inflammatory foci were defined as a cluster of >3 inflammatory cells. • 3. The inflammation score of the liver tissue sample was the average score for all 20× fields.
# Steatosis score was calculated as percentage of hepatocytes with lipid droplets.
# Hepatic steatosis area (relative liver lipids) was quantified on H&E stained slides by image analysis using the VIS software (Visiopharm®, Denmark). VIS protocols are designed to analyze the virtual slides in two steps: • 1. Tissue detection at low magnification (1× objective); and • 2. Detection of steatosis and tissue at high magnification (20× objective).
# The quantitative estimates of steatosis were calculated as an area fraction as follows: […]
# [4] = test system: male CDAA-HFD mice; experiment: CDAA/high-fat diet NASH mouse model: liver total cholesterol and triglycerides; assay type: in vivo; details: 8 weeks QD; for relative levels of liver total cholesterol (normalized to liver weight): compared to untreated vehicle group (FIG. 4A); for relative levels of liver triglycerides (normalized to liver weight): compared to untreated vehicle group (FIG. 4B)
# Description: as §1, §2, §3
# [5] = test system: male CDAA-HFD mice; experiment: CDAA/high-fat diet NASH mouse model: hepatic fibrosis markers (hydroxyproline, galectin-3, PSR, α-SMA); assay type: in vivo; details: 8 weeks QD; for galectin-3 hepatic fractional area: compared to untreated vehicle group (FIG. 9B); for hepatic fibrotic area determined by PSR staining: compared to untreated vehicle group (FIG. 10A); for sinusoidal fibrotic area (PSR): compared to untreated vehicle group (FIG. 10B)
# Description: as §1, §3
# Scanned PSR stained slides were analyzed in several steps: • 1. Tissue detection at low magnification, followed by deep learning-based detection of portal triads and central veins at 10× magnification. Periportal zone was defined as 100 μm around the portal triads. • 2. Fibrosis fibers were detected using the linear Bayesian image analysis method in the periportal and sinusoidal zones. • 3. Bridging was detected using threshold image analysis based on a polynomial local linear filter feature. • 4. Different measures of size, shape and connectivity form both fibrosis and bridging fibrosis in the two zoned were used in a XGBoost classifier to predict fibrosis stage.
# Immunohistochemistry (IHC)-positive staining was quantified by image analysis using the VIS software (Visiopharm®, Denmark) using two steps: • 1. Detection of tissue at low magnification (1× objective), excluding the liver capsule; and • 2. Detection of IHC-positive staining.
# The quantitation of IHC-positive staining is calculated as an area fraction as follows: […]
# IHC factional area quantification was assessed for galectin-3, collagen 1A1, and α-smooth muscle actin.
# Hepatic factional area assessment with picrosirius red stain was determined using the same methods.
# Hepatic fibrotic area was determined by staining with picrosirus red (PSR), which binds collagen, and histological quantitative assessment.
# [6] = test system: rodent NASH models; details: APOE*3Leiden.CETP high-fat diet, ob/ob AMLN, STAM and CDAA/high-fat diet mouse models; WO2019111048; cited from earlier work
# [7] = test system: male CDAA-HFD mice; experiment: CDAA/high-fat diet NASH mouse model: hepatic inflammation and NAFLD activity score; assay type: in vivo; details: 8 weeks QD; for NAFLD activity scores (NAS): compared to untreated vehicle group (FIG. 8B); for number of inflammatory cells (per mm^2): compared to untreated vehicle group and to baseline levels (FIG. 7A); for inflammatory foci (per mm^2): compared to untreated vehicle group and to baseline levels (FIG. 7B)
# Description: as §1, §3, §4, §5, §6
# [8] = test system: APOE*3Leiden.CETP mice; details: WO2016173923A1, cited from earlier work
Molecule,liver weight [1],percentage of hepatocytes with lipid droplets [3],steatosis scores [3],relative levels of liver total cholesterol (normalized to liver weight) [4],relative levels of liver triglycerides (normalized to liver weight) [4],galectin-3 hepatic fractional area [5],hepatic fibrotic area determined by PSR staining [5],sinusoidal fibrotic area (PSR) [5],NAFLD activity scores (NAS) [7],number of inflammatory cells (per mm^2) [7],inflammatory foci (per mm^2) [7],hepatic steatosis area (relative liver lipids) [3],further results
"CC/C=C\C/C=C\C/C=C\C/C=C\C/C=C\CCCCOC(CC)C(=O)O (centres unmarked) [Compound A, 2-((5Z,8Z,11Z,14Z,17Z)-icosa-5,8,11,14,17-pentaenyloxy)butanoic acid]",decreased,significantly decreased,decreased,significant decrease,significant decrease,significantly decreased,significantly decreased,Neither compound alone had a significant effect,significantly decreased,significant decrease; also recorded: below the baseline level,significant decrease; also recorded: below the baseline level,,"plasma triglycerides [2]: significantly decreased; hepatic area expressing α-SMA ([5]; compared to untreated vehicle group (FIG. 11B)): neither Compound A nor OCA significantly affecting; effect on aspects of NASH (hepatic steatosis, inflammation, fibrosis) [6]: address multiple aspects of NASH, including hepatic steatosis, inflammation, and fibrosis"
"CC/C=C\C/C=C\C/C=C\C/C=C\C/C=C\CCCCSC(CC)(CC)C(=O)O [Compound N, 2-ethyl-2-((5Z,8Z,11Z,14Z,17Z)-icosa-5,8,11,14,17-pentaenylthio)butanoic acid]",,,,,,,,,,,,,"fibrosis (as measured by hydroxyproline/proline ratio) ([8]; APOE*3Leiden.CETP mice): effective in reducing fibrosis; influx of inflammatory cells into the liver [8]: prevented; preventing diet-induced hepatic fibrosis, compared with rosiglitazone [8]: superior to rosiglitazone"
COc1ccccc1[C@H](Cn1c(=O)n(C(C)(C)C(=O)O)c(=O)c2c(C)c(-c3ncco3)sc21)OC1CCOCC1 [firsocostat],,significantly decreased,decreased,,,neither semaglutidue nor firsocostat having a significant effect,,,significantly decreased,,,significantly greater,
semaglutide,decreased,not significantly affecting either parameter; also recorded: did not significantly affect,,did not significantly affect,not significantly affecting,not having a significant effect,did not significantly affect,Neither compound alone had a significant effect,,not having a significant effect,not having a significant effect,not significantly affecting either parameter; also recorded: did not have a significant effect,"last recorded relative body weight ([1]; compared to vehicle (FIG. 1A)): decreased; galectin-3 hepatic fractional area ([5]; listed as semaglutidue): neither semaglutidue nor firsocostat having a significant effect; galectin-3 expressing area compared to baseline ([5]; vs baseline (6 weeks CDAA-HFD, before therapy) (FIG. 9B)): significantly increased"
